According to ChEMBL document CHEMBL2413076, “Synthesis and biological evaluation of ursolic acid-triazolyl derivatives as potential anti-cancer agents” (Eur J Med Chem, 2013):

Experiments:
[1] = Growth inhibition of human FR2 cells after 48 hrs by sulforhodamine-B assay; assay type: cell-based; conditions: FR2, 48 h
THP-1 [2] = assay: Growth inhibition of human THP1 cells after 48 hrs by sulforhodamine-B assay; assay type: functional, cell-based; conditions: THP-1, 48 h
MCF7 [3] = assay: Growth inhibition of human MCF7 cells after 48 hrs by sulforhodamine-B assay; assay type: functional, cell-based; conditions: MCF7, 48 h
HCT-116 [4] = assay: Growth inhibition of human HCT116 cells after 48 hrs by sulforhodamine-B assay; assay type: functional, cell-based; conditions: HCT-116, 48 h
A549 [5] = assay: Growth inhibition of human A549 cells after 48 hrs by sulforhodamine-B assay; assay type: functional, cell-based; conditions: A549, 48 h
[6] = Growth inhibition of human FR2 cells assessed as dead cells at 10 uM after 48 hrs by sulforhodamine-B assay relative to control; assay type: cell-based; conditions: read-out: GI
THP-1 [7] = assay: Growth inhibition of human THP1 cells assessed as dead cells at 10 uM after 48 hrs by sulforhodamine-B assay relative to control; assay type: functional; conditions: THP-1, 48 h, read-out: GI
HCT-116 [8] = assay: Growth inhibition of human HCT116 cells assessed as dead cells at 10 uM after 48 hrs by sulforhodamine-B assay relative to control; assay type: functional; conditions: HCT-116, 48 h, read-out: GI
MCF7 [9] = assay: Growth inhibition of human MCF7 cells assessed as dead cells at 10 uM after 48 hrs by sulforhodamine-B assay relative to control; assay type: functional; conditions: MCF7, 48 h, read-out: GI
A549 [10] = assay: Growth inhibition of human A549 cells assessed as dead cells at 10 uM after 48 hrs by sulforhodamine-B assay relative to control; assay type: functional; conditions: A549, 48 h, read-out: GI
[11] = Growth inhibition of human FR2 cells assessed as dead cells at 50 uM after 48 hrs by sulforhodamine-B assay relative to control; assay type: cell-based; conditions: read-out: GI
A549 [12] = assay: Growth inhibition of human A549 cells assessed as dead cells at 50 uM after 48 hrs by sulforhodamine-B assay relative to control; assay type: functional; conditions: A549, 48 h, read-out: GI
MCF7 [13] = assay: Growth inhibition of human MCF7 cells assessed as dead cells at 50 uM after 48 hrs by sulforhodamine-B assay relative to control; assay type: functional; conditions: MCF7, 48 h, read-out: GI
HCT-116 [14] = assay: Growth inhibition of human HCT116 cells assessed as dead cells at 50 uM after 48 hrs by sulforhodamine-B assay relative to control; assay type: functional; conditions: HCT-116, 48 h, read-out: GI
THP-1 [15] = assay: Growth inhibition of human THP1 cells assessed as dead cells at 50 uM after 48 hrs by sulforhodamine-B assay relative to control; assay type: functional; conditions: THP-1, 48 h, read-out: GI

Structure (SMILES)	IC50 [1] [µM]	IC50 (THP-1 [2]) [µM]	IC50 (MCF7 [3]) [µM]	IC50 (HCT-116 [4]) [µM]	IC50 (A549 [5]) [µM]	inhibition at 48 h, 10 µM [6] [%]	inhibition of growth at 10 µM (THP-1 [7]) [%]	inhibition of growth at 10 µM (HCT-116 [8]) [%]	inhibition of growth at 10 µM (MCF7 [9]) [%]	inhibition of growth at 10 µM (A549 [10]) [%]	inhibition at 48 h, 50 µM [11] [%]	inhibition of growth at 50 µM (A549 [12]) [%]	inhibition of growth at 50 µM (MCF7 [13]) [%]	inhibition of growth at 50 µM (HCT-116 [14]) [%]	inhibition of growth at 50 µM (THP-1 [15]) [%]
C[C@H]1[C@H](C)CC[C@]2(C(=O)OCc3cn(-c4ccc(Br)cc4)nn3)CC[C@]3(C)C(=CC[C@@H]4[C@@]5(C)CCC(=O)C(C)(C)[C@@H]5CC[C@]43C)[C@H]12	19	1	15	1.7	18	58	74	80	44	45	93	63	78	92	95
C#CCOC(=O)[C@]12CC[C@@H](C)[C@H](C)[C@H]1C1=CC[C@@H]3[C@@]4(C)CCC(=O)C(C)(C)[C@@H]4CC[C@@]3(C)[C@]1(C)CC2	24	13	56	2.3	15	33	42	74	22	50	86	78	42	96	88
C[C@H]1[C@H](C)CC[C@]2(C(=O)OCc3cn(-c4ccccc4F)nn3)CC[C@]3(C)C(=CC[C@@H]4[C@@]5(C)CCC(=O)C(C)(C)[C@@H]5CC[C@]43C)[C@H]12												18	15	12	49
C[C@H]1[C@H](C)CC[C@]2(C(=O)OCc3cn(-c4ccccc4I)nn3)CC[C@]3(C)C(=CC[C@@H]4[C@@]5(C)CCC(=O)C(C)(C)[C@@H]5CC[C@]43C)[C@H]12	35	9.4	13	15	19	36	56	44	54	43	56	67	76	78	79
C[C@H]1[C@H](C)CC[C@]2(C(=O)OCc3cn(-c4ccccc4Cl)nn3)CC[C@]3(C)C(=CC[C@@H]4[C@@]5(C)CCC(=O)C(C)(C)[C@@H]5CC[C@]43C)[C@H]12	> 50	< 0.1	< 0.1	9.1	0.15	9	80	54	81	77	35	91	95	93	96
C[C@H]1[C@H](C)CC[C@]2(C(=O)OCc3cn(-c4ccc(F)cc4)nn3)CC[C@]3(C)C(=CC[C@@H]4[C@@]5(C)CCC(=O)C(C)(C)[C@@H]5CC[C@]43C)[C@H]12												3	4	3	2
C[C@H]1[C@H](C)CC[C@]2(C(=O)OCc3cn(-c4ccc(F)cc4F)nn3)CC[C@]3(C)C(=CC[C@@H]4[C@@]5(C)CCC(=O)C(C)(C)[C@@H]5CC[C@]43C)[C@H]12	44	1.1	30	0.47	6.4	2	82	69	17	57	78	64	73	91	86
C[C@H]1[C@H](C)CC[C@]2(C(=O)OCc3cn(-c4ccc(C(F)(F)F)cc4)nn3)CC[C@]3(C)C(=CC[C@@H]4[C@@]5(C)CCC(=O)C(C)(C)[C@@H]5CC[C@]43C)[C@H]12												30	3	16	27
C[C@H]1[C@H](C)CC[C@]2(C(=O)OCc3cn(-c4ccc(CC#N)cc4)nn3)CC[C@]3(C)C(=CC[C@@H]4[C@@]5(C)CCC(=O)C(C)(C)[C@@H]5CC[C@]43C)[C@H]12	46	37	79	19	> 100	14	32	44	17	13	46	26	34	67	55
C[C@H]1[C@H](C)CC[C@]2(C(=O)OCc3cn(-c4ccccc4[N+](=O)[O-])nn3)CC[C@]3(C)C(=CC[C@@H]4[C@@]5(C)CCC(=O)C(C)(C)[C@@H]5CC[C@]43C)[C@H]12	> 50	48	> 50	14	> 50	9	24	45	4	3	12	39	42	65	54
C[C@H]1[C@H](C)CC[C@]2(C(=O)OCc3cn(-c4ccc(Cl)cc4)nn3)CC[C@]3(C)C(=CC[C@@H]4[C@@]5(C)CCC(=O)C(C)(C)[C@@H]5CC[C@]43C)[C@H]12												26	52	49	9
C[C@H]1[C@H](C)CC[C@]2(C(=O)OCc3cn(-c4cccc(Br)c4)nn3)CC[C@]3(C)C(=CC[C@@H]4[C@@]5(C)CCC(=O)C(C)(C)[C@@H]5CC[C@]43C)[C@H]12												16	3	10	32
C[C@H]1[C@H](C)CC[C@]2(C(=O)OCc3cn(-c4ccccc4)nn3)CC[C@]3(C)C(=CC[C@@H]4[C@@]5(C)CCC(=O)C(C)(C)[C@@H]5CC[C@]43C)[C@H]12	82	11	39	14	24	12	54	44	28	43	45	64	51	78	83
C[C@H]1[C@H](C)CC[C@]2(C(=O)OCc3cn(-c4ccccc4C(F)(F)F)nn3)CC[C@]3(C)C(=CC[C@@H]4[C@@]5(C)CCC(=O)C(C)(C)[C@@H]5CC[C@]43C)[C@H]12												46	4	23	73
C[C@H]1[C@H](C)CC[C@]2(C(=O)OCc3cn(-c4cccc5ccccc45)nn3)CC[C@]3(C)C(=CC[C@@H]4[C@@]5(C)CCC(=O)C(C)(C)[C@@H]5CC[C@]43C)[C@H]12							47	2	40	27		50	80	76	75
COc1ccccc1-n1cc(COC(=O)[C@]23CC[C@@H](C)[C@H](C)[C@H]2C2=CC[C@@H]4[C@@]5(C)CCC(=O)C(C)(C)[C@@H]5CC[C@@]4(C)[C@]2(C)CC3)nn1	> 50	< 0.1	< 0.1	0.3	< 0.1	5	82	77	87	79	28	94	91	94	93
C[C@H]1[C@H](C)CC[C@]2(C(=O)OCc3cn(-c4ccc(I)cc4)nn3)CC[C@]3(C)C(=CC[C@@H]4[C@@]5(C)CCC(=O)C(C)(C)[C@@H]5CC[C@]43C)[C@H]12												2	82	8	1
